Here are results for 10 molecules from ChEMBL document CHEMBL1145230, “Syntheses of 2,4,6-trisubstituted pyrimidine derivatives as a new class of antifilarial topoisomerase II inhibitors” (Bioorg Med Chem Lett, 2005).

Active and inactive are the calls of the source. No cut-off for these calls is given here.

One may read the inhibition as the change of the read-out against control, counted positive when it falls.

What all share (format): functional
Experiment [1] deals with Setaria cervi. In words: Percent inhibition of filarial parasite Setaria cervi by compound at 5 ug/mL concentration.
The subject of experiment [2] is Setaria cervi. In words: Percent inhibition of filarial parasite Setaria cervi by compound at 10 ug/mL concentration.
Experiment [3] has as its system Setaria cervi. The experiment is described as follows: Percent inhibition of filarial parasite Setaria cervi by compound at 20 ug/mL concentration.
Experiment [4] concerns Setaria cervi. The experiment is described as follows: Percent inhibition of filarial parasite Setaria cervi by compound at 40 ug/mL concentration.
Experiment [5] has as its system Setaria cervi. The experiment is described as follows: Percent inhibition of filarial parasite Setaria cervi by compound at 5 ug/mL concentration; NI = no inhibition.
The test system of experiment [6] is Setaria cervi. The experiment is described as follows: Percent inhibition of filarial parasite Setaria cervi by compound at 10 ug/mL concentration; NI = no inhibition.

`CN1CCN(c2cc(-c3cccs3)nc(-c3ccc(N)cc3)n2)CC1`: the inhibition in the experiment on Setaria cervi [1] was found to be 25%; with Setaria cervi [2] it was 80%; in the experiment with Setaria cervi [3], 80%; in the experiment on Setaria cervi [4], 80%.
In the case of `Nc1nc(NCCN2CCOCC2)cc(-c2cccs2)n1`, the inhibition with Setaria cervi [2], in the experiment on Setaria cervi [3] and in the experiment with Setaria cervi [4] was 80% throughout. Also, the inhibition result with Setaria cervi [5] was “inactive”.
For the molecule `Nc1nc(NCCCN2CCOCC2)cc(-c2cccs2)n1`, the inhibition in the experiment with Setaria cervi [1] stood at 60%; in the experiment on Setaria cervi [2], 80%; in the experiment with Setaria cervi [3], 80%; in the experiment with Setaria cervi [4] it was 80%.
Regarding `CCCNc1cc(-c2cccs2)nc(N)n1`, the inhibition in the experiment on Setaria cervi [3] and in the experiment on Setaria cervi [4] was 60% throughout. For the same molecule, the inhibition result in the experiment with Setaria cervi [6] and in the experiment on Setaria cervi [5] was “inactive” in each case.
Turning to `CO[C@@H]1[C@@H](OC(N)=O)[C@@H](O)[C@H](Oc2ccc3c(O)c(NC(=O)c4ccc(O)c(CC=C(C)C)c4)c(=O)oc3c2C)OC1(C)C`, the values for the inhibition in the experiment with Setaria cervi [2], with Setaria cervi [3] and in the experiment with Setaria cervi [4] were 10%, 20% and 80%, respectively. Also, the inhibition result in the experiment with Setaria cervi [5] is “inactive”.
Regarding `CN1CCN(c2cc(-c3cccs3)nc(N)n2)CC1`, the inhibition amounted to 60% with Setaria cervi [1], 80% with Setaria cervi [2], 80% in the experiment with Setaria cervi [3] and 80% in the experiment on Setaria cervi [4].
Turning to `CCN(CC)C(=O)N1CCN(C)CC1`, the inhibition is 10% in the experiment on Setaria cervi [3] and 45% in the experiment with Setaria cervi [4]. Besides, the inhibition result in the experiment with Setaria cervi [6] and with Setaria cervi [5] was “inactive” each time.
On to `Nc1ccc(-c2nc(NCCCN3CCOCC3)cc(-c3cccs3)n2)cc1`, for which the inhibition with Setaria cervi [1] came to 40%; with Setaria cervi [2], 70%; with Setaria cervi [3], 70%; in the experiment with Setaria cervi [4], 70%.
For the molecule `CCn1cc(C(=O)O)c(=O)c2ccc(C)nc21`, the figures for the inhibition with Setaria cervi [2], in the experiment with Setaria cervi [3] and with Setaria cervi [4] were 20%, 40% and 80%, respectively. Besides, the inhibition entry with Setaria cervi [5] was “inactive”.
As for `Nc1nc(NCCO)cc(-c2cccs2)n1`, the inhibition with Setaria cervi [3] and in the experiment with Setaria cervi [4] was 60% throughout. Further, the inhibition result with Setaria cervi [6] and in the experiment on Setaria cervi [5] was “inactive” each time.
